In brackets after ≈: the same amount, converted by molar mass. Several values for one entry are separate records, joined by “and”; a condition that tells them apart may be missing. Equal values may be shown once.

Format in all cases: cell-based
The subject of assay [1] is E. coli ATCC 25922. Briefly: MIC, broth microdilution (CLSI), CAMHB. Conditions: Escherichia coli; monosubstance; Ec ATCC25922; read-out: MIC. The protocol: (§1) MIC-testing was done immediately after preparation of the dilutions. All tests were done in duplicate and repeated once on a separate occasion.
(§2) 1 mL of the bacterial suspension was transferred into a tube containing 10 mL CAMHB and was vortexed thoroughly. (S. pneumoniae 1 mL in 10 mL CAMHB+5% lysed horse blood). Columns 1-15 of the 96-well plate were inoculated with 5 μL of this suspension (1-15=antibacterial solution, 16=sterile medium without test item).
(§3) Turbidity was read visually with a mirror.

Another assay relates to E. faecalis ATCC 29212. Briefly: MIC, broth microdilution (CLSI), CAMHB. Conditions: Enterococcus faecalis; monosubstance; Ef ATCC29212; read-out: MIC. The procedure:
as §1, §2, §3
Background: Broth dilution looks for growth in wells or tubes with falling amounts of substance.

Another assay concerns E. faecalis V583 (VanB). Briefly: MIC, broth microdilution (CLSI), CAMHB. The settings on record: Enterococcus faecalis; monosubstance; Ef V583; read-out: MIC. The protocol: as §1, §2, §3
The next assay deals with S. aureus ATCC 29213. Briefly: MIC, broth microdilution (CLSI), CAMHB. Conditions: Staphylococcus aureus; monosubstance; Sa ATCC29213; read-out: MIC. The procedure:
as §1, §2, §3

Assay [2] relates to S. aureus ATCC 33593 (MRSA). Briefly: MIC, broth microdilution (CLSI), CAMHB. Conditions: Staphylococcus aureus; monosubstance; Sa ATCC33593; read-out: MIC. The protocol: as §1, §2, §3
The next assay deals with S. pneumoniae ATCC 33400. Briefly: MIC, broth microdilution (CLSI), CAMHB. Conditions: Streptococcus pneumoniae; monosubstance; Spn ATCC33400; read-out: MIC. The protocol:
as §1, §2, §3

For assay [3], the system named is S. pneumoniae BAY 19397 (penicillin-, macrolide-, quinolone-resistant). Briefly: MIC, broth microdilution (CLSI), CAMHB. The settings on record: monosubstance; Spn 19397; listed as MCB. The procedure:
as §1, §2, §3

In assay [4] the test system is S. aureus DSM 11823, clone 16 (MSSA, quinolone-resistant). Briefly: microbe, parasite or virus in culture. Conditions: Staphylococcus aureus. The protocol:
as §1, §2, §3

Assay [5] has as its system E. coli ATCC 25922. Briefly: Time-kill curves. Conditions: E. coli ATCC25922.
For another assay, the system named is E. coli NRZ-00401. Briefly: Time-kill curves. The settings on record: single agent at 1x its MIC; E. coli NRZ00401.
The next assay deals with E. coli NRZ-00302. Briefly: Time-kill curves. Conditions: E. coli NRZ00302.
The subject of another assay is E. coli GNS-2601. Briefly: Time-kill curves. The settings on record: E. coli GNS2601.
Assay [6] deals with P. aeruginosa NRZ-00425 (VIM-2 β-lactamase). Briefly: microbe, parasite or virus in culture. The settings on record: Pseudomonas aeruginosa, checkerboard, read-out: MIC (agent alone). From the text:
The checkerboard consists of columns in which each well contains the same amount of antibacterial A being over i dilutions along the x-axis, and in rows in which each well contains the same amount of antibacterial B over j dilutions on the y-axis, i.e. serial dilutions of antibacterials A and B, respectively, are titrated in a rectangular fashion.
The fractional inhibitory concentration (FIC) is a mathematical expression of the effect of the combination of two antibacterial agents A and B. The FICs were calculated as the MIC of antibacterial A and antibacterial B in combination divided by the MIC of antibacterial A or antibacterial B alone.
The FICs and FIC index, respectively, are calculated according to the following equations:
FIC(A)=MIC(A in the presence of B)/MIC(A alone)
FIC(B)=MIC(B in the presence of A)/MIC(B alone)
The checkerboard titrations were performed three times.

On to `CC(=O)NC[C@H]1CN(c2ccc(OCC3(O)CCN(c4cc5c(cc4F)c(=O)c(C(=O)O)cn5C4CC4)CC3)c(F)c2)C(=O)O1` [Compound 1, 7-(4-{4-[(5S)-5-(acetylamino-methyl)-2-oxo-oxazolidin-3-yl]-2-fluoro-phenoxymethyl}-4-hydroxy-piperidin-1-yl)-1-cyclopropyl-6-fluoro-4-oxo-1,4-dihydro-quinoline-3-carboxylic acid], for which the MIC in the assay on E. coli ATCC 25922 [1] was 16 µg/mL (≈ 25.5 µM); in the assay with E. faecalis ATCC 29212, 0.03 µg/mL (≈ 0.0479 µM); with E. faecalis V583 (VanB), 0.03 µg/mL (≈ 0.0479 µM); in the assay on S. aureus ATCC 29213 it was 0.25 µg/mL (≈ 0.399 µM); in assay [2], 0.03 µg/mL (≈ 0.0479 µM); in the assay on S. pneumoniae ATCC 33400, 0.0075 µg/mL (≈ 0.012 µM). Further, the MIC in [3] is 0.0004 µg/mL (≈ 0.000638 µM); in assay [4] it was 0.03 µg/mL (≈ 0.0479 µM); in assay [6] it was 128 to 256 µg/mL. Moreover, the “Viable counts at 8 h of exposure” value in the assay on E. coli ATCC 25922 [5] (single agent at 1x its MIC) was 4.69 log10 CFU/mL; in the assay with E. coli ATCC 25922 [5] (single agent at 2x its MIC, listed as MCB) it was 2.61 log10 CFU/mL and 2.62 log10 CFU/mL; with E. coli NRZ-00401, 6.32 log10 CFU/mL; with E. coli NRZ-00302 (single agent at 1x its MIC), 8.28 log10 CFU/mL; in the assay on E. coli NRZ-00302 (single agent at 2x its MIC), 5.69 log10 CFU/mL; with E. coli GNS-2601 (single agent at 1x its MIC, listed as MCB) it was 8.34 log10 CFU/mL and 7.34 log10 CFU/mL. Moreover, the “Viable counts at 8 h of exposure” value in the assay on E. coli GNS-2601 (single agent at 2x its MIC) stood at 6.29 log10 CFU/mL.

The values above are taken from US20160113921A1, “COMBINATION THERAPY COMPRISING OXAZOLIDINONE-QUINOLONES FOR USE IN TREATING BACTERIAL INFECTIONS” (MORPHOCHEM AKTIENGESELLSCHAFT FÜR KOMBINATORISCHE CHEMIE, priority 2013, published 2016).
